Experimental data taken from paper PMC9150102 (Journal of Medicinal Chemistry, 2022).
Like-named read-outs stand apart in the source and are kept apart here.

What was measured:
[1] = Acute toxicity (LD50) in mice; conditions: male, Albino Swiss CD-1, mouse, in vivo, po
Description: Acute toxicity (LD50) was preliminarily evaluated in mice following i.v. and oral drug administration.
Control animals received the vehicle only.
Drug toxicity studies in mice
Acute toxicity was determined in CD1 mice. Separate mice groups were either orally treated, or
intravenously injected, with increasing doses of the tested substance to identify the dose causing 50%
mortality (LD50). Acute mortality was assessed at 30 min after compound administration; survival was

[2] = cited from earlier work
[3] = tested on: Albino Swiss CD-1 mice; design: method as in PMID 36153005; conditions: i.v. administration; cited from earlier work
[4] = target: T1, Na^+/K^+ ATPase-alpha1 isoform purified from dog kidneys (Canis lupus familiaris, UniProt P50997); design: method as in PMID 36153005; conditions: dog renal preparations; cited from earlier work
T1 construct: excised from 1–3-year-old male beagle dogs; from tissue; host or cells: dog (beagle) kidney outer medulla, Jørgensen purification

[5] = target: T2, SERCA2a (Cavia porcellus, UniProt A0A286XFU8); experiment: SERCA2a ATPase activity, Ca2+ dependency in cardiac SR microsomes from healthy guinea pigs; type: biochemical, guinea pig; conditions: for SERCA2a–Ca2+ affinity (KdCa) modulation (words): 10 and 100 nM, healthy guinea pig SR preparations
T2 construct: from tissue; host or cells: guinea pig left ventricle, SR-enriched microsomes
Description: SERCA2a ATPase activity was assessed in SR preparations from healthy guinea pig hearts. Ca^2+ dependency of ATPase activity was measured, and kinetic parameters (KdCa and Vmax) were estimated at compound concentrations of 10 and 100 nM.
[…] […] Data are the mean ± SEM. *p < 0.05 (one-way RM ANOVA plus post hoc Tukey’s multiple comparisons or paired t-test).
Measurements were performed in cardiac SR microsomes (guinea pig) and in whole tissue homogenates (rat). Cardiac preparations included SERCA2a and PLN. To test for PLN involvement in the effect of compounds, SERCA1 activity was measured in PLN-free microsomes (from guinea pig skeletal muscle) before and after reconstitution with the synthetic PLN1–32 inhibitory fragment at a ratio of 300:1 for PLN/SERCA. […] Either an increase in Vmax (rat) or a decrease in KdCa (increased Ca^2+ affinity) (guinea pig) stands for enhancement of SERCA function. […]
Left ventricles (LV) were dissected from rat and guinea -pig of healthy and failing preparations and frozen until use. Tissues were homogenized, subjected to centrifugation to obtain SR -enriched microsomes and sarcomeric proteins were extracted, as previously described 4.
(§1) In the case of guinea-pig hearts, LV tissues were homogenized in 4 volumes of 10 mM NaHCO3, 1 mM PMSF, 10 μg/ml aprotinin and leupeptin (pH 7) and centrifuged at 12,000g for 15 minutes. Supernatants were filtered and centrifuged at 100,000 g for 30 min. Contractile proteins were extracted by suspending the pellets with 0.6 M KCl, 30 mM histidine, pH 7 and further centrifugation at 100,000 g for 30 min.
(§2) Final pellets were reconstituted with 0.3 M sucrose, 30 mM histidine, pH 7, to obtain SR-enriched […]
SERCA2a ATPase activity was measured as the rate of 32P-ATP release at multiple Ca2+ concentrations (100-2000 nM) in the absence and presence of tested compounds, as previously described5. Increasing concentrations of each compound were pre-incubated with 2 μg of cardiac preparations for 5 min at 4° C in 80 μl of a solution containing 100 mM KCl, 5 mM MgCl2, 1 μM A23187, 20 mM Tris, pH 7.5. Then, 20 μl of 5 mM Tris-ATP containing 50 nCi of 32P-ATP (3-10 Ci/mmol, Perkin Elmer) were added. The ATP hydrolysis was continued for 15 min at 37°C and the reaction was stopped by acidification with 100 μl of 20% ice-cold perchloric acid. 32P was separated by centrifugation with activated charcoal (Norit A, Serva) and the radioactivity was measured. SERCA2a-dependent ATPase activity was identified as the portion of total hydrolytic activity inhibited by cyclopiazonic acid (CPA, 10 µM). Technical replicates were used to ensure the reliability of single values. […]

[6] = target: T1, Na^+/K^+ ATPase-alpha1 isoform purified from dog kidneys; experiment: Na+/K+ ATPase activity inhibition, purified dog kidney enzyme (32P-ATP hydrolysis); type: biochemical
Description: Compounds were tested in a concentration range from 10^–9 to 10^–4 M on a purified renal Na^+/K^+ ATPase preparation with a specific activity of 14 μmol/min/mg protein.
Figure 2 Na^+/K^+ ATPase activity inhibition in a dog purified enzyme preparation. All compounds were tested in a concentration range from 10^–9 to 10^–4 M in comparison to ouabain.
The inhibitory effect of compounds was tested at multiple concentrations on Na^+/K^+ ATPase-alpha1 isoform purified from dog kidneys. […]
Renal Na+/K+ ATPase purification and activity
Purification of renal Na+/K+ ATPase was performed according to the method of Jørgensen2. Kidneys were excised from 1–3-year-old male beagle dogs, obtained from the General Pharmacology Department of Sigma-tau, Pomezia, Italy, under pentobarbital anesthesia. Kidneys were sliced and the outer medulla was dissected, pooled and suspended (1g in 10 ml) in a sucrose-histidine solution, containing 250 mM sucrose, 30 mM histidine and 5 mM EDTA, pH 7.2 and homogenized. The homogenate was centrifuged at 6,000 g for 15 min, the supernatant was decanted and centrifuged at 48,000 g for 30 min. The pellet was suspended in the sucrose-histidine buffer and incubated for 20 min with a sodium-dodecyl-sulphate (SDS) solution, dissolved in a gradient buffer, containing 25 mM imidazole and 1 mM EDTA, pH 7.5. The sample was layered on the top of a sucrose discontinuous gradient (10, 15 and 29.4%) and centrifuged at 60,000 g for 115 min. The final pellet was suspended in the gradient buffer.
Na+/K+ ATPase activity was assayed by measuring 32P-ATP hydrolysis, as previously described3.
Increasing concentrations of the standard ouabain, or tested compound, were incubated with 0.3 μg of purified dog kidney enzyme for 10 min at 37°C in 120 μl final volume of a medium, containing 140 mM NaCl, 3 mM MgCl2, 50 mM Hepes-Tris, 3 mM ATP, pH 7.5. Then, 10 μl of incubation solution containing 10 mM KCl and 20 nCi of 32P-ATP (3-10 Ci/mmol, Perkin Elmer) were added, the reaction continued for 15 min at 37°C and was stopped by acidification with 20% ice-cold perchloric acid.
32P was separated by centrifugation with activated Charcoal (Norit A, Serva) and the radioactivity was measured. Effects of increasing concentrations of the tested compound were compared to ouabain, as positive standard, and to vehicle (control) at 37°C. The inhibitory activity was expressed as percent of activity in control. The concentration of compound causing 50% inhibition of the Na+/K+ ATPase activity (IC50) was calculated by non-linear fitting of data points (KaleidagraphTM, Sinergy Software). […]

[7] = tested on: SERCA1 reconstituted with PLN1–32 fragment; experiment: SERCA1 ATPase activity after reconstitution with PLN1-32 fragment; type: biochemical, guinea pig; conditions: PLN/SERCA 300:1
Description: Data are the mean ± SEM. *p < 0.05 (one-way RM ANOVA plus post hoc Tukey’s multiple comparisons or paired t-test).
Measurements were performed in cardiac SR microsomes (guinea pig) and in whole tissue homogenates (rat). Cardiac preparations included SERCA2a and PLN. To test for PLN involvement in the effect of compounds, SERCA1 activity was measured in PLN-free microsomes (from guinea pig skeletal muscle) before and after reconstitution with the synthetic PLN1–32 inhibitory fragment at a ratio of 300:1 for PLN/SERCA. […] Either an increase in Vmax (rat) or a decrease in KdCa (increased Ca^2+ affinity) (guinea pig) stands for enhancement of SERCA function.
(rats). As verified by Western blot, cardiac microsomes preparations included SERCA2a and PLN and skeletal muscle ones included SERCA1 only.
SERCA stimulation4, compounds were also tested on SERCA1 in microsomes of guinea-pig skeletal muscle (PLN-free) before and after reconstitution with the PLN1-32 inhibitory fragment at a ratio of 300:1 […]
Tissues were homogenized, subjected to centrifugation to obtain SR -enriched microsomes and sarcomeric proteins were extracted, as previously described 4.
as §1, §2
SERCA2a ATPase activity was measured as the rate of 32P-ATP release at multiple Ca2+ concentrations (100-2000 nM) in the absence and presence of tested compounds, as previously described5. Increasing concentrations of each compound were pre-incubated with 2 μg of cardiac preparations for 5 min at 4° C in 80 μl of a solution containing 100 mM KCl, 5 mM MgCl2, 1 μM A23187, 20 mM Tris, pH 7.5. Then, 20 μl of 5 mM Tris-ATP containing 50 nCi of 32P-ATP (3-10 Ci/mmol, Perkin Elmer) were added. The ATP hydrolysis was continued for 15 min at 37°C and the reaction was stopped by acidification with 100 μl of 20% ice-cold perchloric acid. 32P was separated by centrifugation with activated charcoal (Norit A, Serva) and the radioactivity was measured. SERCA2a-dependent ATPase activity was identified as the portion of total hydrolytic activity inhibited by cyclopiazonic acid (CPA, 10 µM). Technical replicates were used to ensure the reliability of single values.
Reconstitution of SERCA1 with PLN1-32 synthetic fragment
Adult healthy male guinea-pigs were used to prepare SERCA1-enriched SR microsomes from fast-twitch hind leg muscles. Microsomes were prepared as described for SERCA2a preparations. For reconstitution experiments, SERCA1 (PLN-free) was pre-incubated with synthetic PLN1-32 fragment (canine sequence, Biomatik Corporation, Canada) in 20 mM imidazole, pH 7, at 1:300 SERCA1:PLN ratio for 30 min at room temperature. After pre-incubation, SERCA1 (PLN-free) alone, or reconstituted with PLN1-32 […]
fragment, was utilized for SERCA activity measurement by using 32P-ATP hydrolysis method at different

[8] = target: skeletal SERCA1 (sarcoplasmic reticulum calcium ATPase 1) (guinea pig (endogenous in skeletal muscle))
[9] = read-out: NKA Inhibition (IC50 µM)

T2 sequence (A0A286XFU8 entry or part of it): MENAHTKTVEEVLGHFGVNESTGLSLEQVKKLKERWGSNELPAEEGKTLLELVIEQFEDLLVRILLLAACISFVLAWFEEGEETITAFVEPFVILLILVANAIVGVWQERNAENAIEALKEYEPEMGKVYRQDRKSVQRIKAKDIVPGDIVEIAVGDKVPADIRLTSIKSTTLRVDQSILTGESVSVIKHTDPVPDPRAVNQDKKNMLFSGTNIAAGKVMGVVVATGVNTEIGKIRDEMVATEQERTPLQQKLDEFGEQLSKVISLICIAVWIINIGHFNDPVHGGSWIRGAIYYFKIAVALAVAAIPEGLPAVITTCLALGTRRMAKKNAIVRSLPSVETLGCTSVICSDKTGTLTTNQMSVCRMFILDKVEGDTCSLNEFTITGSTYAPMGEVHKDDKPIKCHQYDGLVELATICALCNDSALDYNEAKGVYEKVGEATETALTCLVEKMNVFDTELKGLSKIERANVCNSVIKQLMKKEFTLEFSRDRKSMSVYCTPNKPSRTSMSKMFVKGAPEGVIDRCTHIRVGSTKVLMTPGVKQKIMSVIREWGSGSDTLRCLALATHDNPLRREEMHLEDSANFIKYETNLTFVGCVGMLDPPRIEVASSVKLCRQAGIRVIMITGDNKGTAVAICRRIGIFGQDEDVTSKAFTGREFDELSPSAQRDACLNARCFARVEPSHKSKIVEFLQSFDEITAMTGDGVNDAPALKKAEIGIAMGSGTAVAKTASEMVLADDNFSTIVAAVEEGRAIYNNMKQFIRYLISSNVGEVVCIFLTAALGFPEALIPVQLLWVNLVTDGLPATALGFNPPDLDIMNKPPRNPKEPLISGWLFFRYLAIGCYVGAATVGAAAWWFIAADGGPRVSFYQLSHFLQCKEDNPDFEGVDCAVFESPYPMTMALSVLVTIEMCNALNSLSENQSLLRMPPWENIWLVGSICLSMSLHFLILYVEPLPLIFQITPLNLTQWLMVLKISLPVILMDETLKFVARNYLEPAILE

Compound: C[C@]12CCC(=NOCCN)C[C@@H]1C(=O)C[C@@H]1[C@@H]2CC[C@]2(C)C(=O)CC[C@@H]12 (mixture of isomers) [istaroxime]
- LD50 at 24 h [1]: 200 mg/kg
- half-life [2]: ~1 h
- LD50 [3]: 23 mg/kg
- IC50 [4]: 0.14 µM

Compound: C[C@]12CC/C(=C\CCC(=O)O)C[C@@H]1[C@@H](O)C[C@@H]1[C@@H]2CC[C@]2(C)C(=O)CC[C@@H]12 [Compound 1]
- SERCA2a Stimulation @100 nM (DELTA% KdCa) ([5]; 100 nM): -15%
- SERCA2a KdCa reduced by ([5]; 100 nM, guinea pig preparation): 15%
- IC50 [6]: > 100 µM

Compound: C[C@]12CC/C(=C/CCC(=O)O)C[C@@H]1[C@@H](O)C[C@@H]1[C@@H]2CC[C@]2(C)C(=O)CC[C@@H]12 [Compound 2]
- SERCA2a–Ca2+ affinity (KdCa) modulation (words) [5]: inactive
- IC50 [6]: > 100 µM

Compound: C[C@]12CC/C(=C\CCC(=O)O)C[C@@H]1[C@H](O)C[C@@H]1[C@@H]2CC[C@]2(C)C(=O)CC[C@@H]12 [Compound 3]
- SERCA2a–Ca2+ affinity (KdCa) modulation (words) [5]: inactive
- SERCA2a–Ca2+ affinity (KdCa) modulation (words) ([5]; listed as compound 3): only a trend to SERCA2a KdCa reduction

Compound: C[C@]12CC/C(=C/CCC(=O)O)C[C@@H]1[C@H](O)C[C@@H]1[C@@H]2CC[C@]2(C)C(=O)CC[C@@H]12 [Compound 4]
- SERCA2a–Ca2+ affinity (KdCa) modulation (words) [5]: inactive
- IC50 [6]: > 100 µM

Compound: C[C@]12CC[C@H](CCCC(=O)O)C[C@@H]1[C@H](O)C[C@@H]1[C@@H]2CC[C@]2(C)C(=O)CC[C@@H]12 [Compound 6]
- SERCA2a Stimulation @100 nM (DELTA% KdCa) ([5]; 100 nM): -23%
- IC50 [6]: > 100 µM

Compound: CCOC(=O)CCC[C@H]1CC[C@@]2(C)[C@H](C1)[C@@H](O)C[C@@H]1[C@@H]2CC[C@]2(C)C(=O)CC[C@@H]12 [Compound 7]
- SERCA2a Stimulation @100 nM (DELTA% KdCa) ([5]; 100 nM): -23%
- IC50 [6, 9]: > 100 µM

Compound: C[C@]12CC[C@H](CC(=O)O)C[C@@H]1[C@H](O)C[C@@H]1[C@@H]2CC[C@]2(C)C(=O)CC[C@@H]12 [Compound 9]
- SERCA2a–Ca2+ affinity (KdCa) modulation (words) [5]: inactive

Compound: CCOC(=O)C[C@H]1CC[C@@]2(C)[C@H](C1)[C@@H](O)C[C@@H]1[C@@H]2CC[C@]2(C)C(=O)CC[C@@H]12 [Compound 10]
- SERCA2a Stimulation @100 nM (DELTA% KdCa) ([5]; 100 nM): -26%
- IC50 [6]: > 100 µM

Compound: C[C@]12CC[C@H](CCCCCC(=O)O)C[C@@H]1[C@@H](O)C[C@@H]1[C@@H]2CC[C@]2(C)C(=O)CC[C@@H]12 [Compound 11]
- SERCA2a Stimulation @100 nM (DELTA% KdCa) ([5]; 100 nM): -20%
- SERCA2a–Ca2+ affinity (KdCa) modulation (words) [5]: slightly less active
- IC50 [6, 9]: > 100 µM

Compound: CCOC(=O)CCCCC[C@H]1CC[C@@]2(C)[C@H](C1)[C@@H](O)C[C@@H]1[C@@H]2CC[C@]2(C)C(=O)CC[C@@H]12 [Compound 12]
- SERCA2a–Ca2+ affinity (KdCa) modulation (words) [5]: slightly less active
- IC50 [6, 9]: > 100 µM

Compound: PLN1–32 fragment: synthetic PLN1-32 inhibitory fragment of phospholamban (canine sequence, Biomatik) (MEKVQYLTRSAIRRASTIEMPQQARQKLQNLF) [reference compound]
- SERCA1 KdCa increased by (reconstitution with PLN1–32) [7]: 23–25%

Compound: synthetic PLN(1-32) inhibitory fragment of phospholamban (from UniProt P26678 1-32) (peptide)
- increase of KdCa (Ca2+ dependency of SERCA1 ATPase activity, 32P-ATP, 37 °C) after reconstitution of skeletal muscle microsomes with PLN(1-32) at 300:1 PLN/SERCA; Vmax not affected [8]: 23 to 25%
